Test results from patent US20220257595A1, “MACITENTAN FOR USE IN TREATING PORTOPULMONARY HYPERTENSION” (ACTELION PHARMACEUTICALS LTD, priority 2019, published 2022).
“Also recorded” adds a separate entry of the source.

Test system: patients with PoPH
Experiment: PORTICO: right heart catheterization hemodynamics at rest (PVR, mRAP, mPAP, cardiac index, TPR, SVO2, PAWP/LVEDP)
Type: in vivo, human
Method: This study was designed as a randomized, double-blind (DB), placebo-controlled, prospective, multicenter, parallel group Phase 4 study assessing the efficacy and safety of macitentan in PoPH. The study design included an OL period following DB End of Treatment (EOT), the details of which are included below. The study design required approximately 84 adult patients with PoPH to be randomized (1:1) to receive either macitentan 10 mg, or matching placebo, once daily (o.d.) orally. Subject allocation to treatment groups was stratified by background PAH specific therapy receipt (yes/no). Stratification by region of enrollment was also performed as the number of enrolled patients per center was expected to be low, and variation in total patient numbers on a country-to-country level was expected. Based on an attrition rate of 10%, it was expected to have 76 evaluable patients at Week 12/End of Treatment (double-blind) (EOT-DB). Subjects were required to have a confirmed diagnosis of PoPH with a PVR of ≥4 Wood units (WU; ≥320 dyn·s·cm^−5) at enrollment but not have severe hepatic impairment (defined as Child-Pugh Class C or Model for End-Stage Liver Disease (MELD) score ≥19). Subjects were required to have 6-minute walk distance (6MWD) ≥50 m at enrollment but they could belong to any WHO FC. Patients were randomized at 36 sites in seven countries. The core study comprised the following periods:
The primary efficacy endpoint was: • Relative change from baseline to Week 12 in PVR, expressed as ratio of Week 12 to baseline PVR (Week 12 PVR divided by baseline PVR).
(i) Hemodynamic measurements—right heart catheterization: Invasive cardiac hemodynamic variables were measured according to the RHC guidelines at Baseline (Visit 1/Screening) and Week 12, or at permanent discontinuation of DB study treatment if prior to Week 12 (at the investigator's discretion). The thermodilution technique was used to measure cardiac output (CO). For each patient, a maximum of two RHC procedures were performed during the study. The following variables were measured: Heart rate (HR), PAWP or LVEDP (if PAWP is not available), mRAP, systolic/diastolic/mean pulmonary arterial pressure (PAP), CO, SVO2. PVR was calculated at Visit 1/Screening. The following hemodynamic variables were calculated for analysis purposes: PVR, TPR, cardiac index.
The primary efficacy endpoint is: • Relative change from baseline to Week 12 in PVR, expressed as ratio of Week 12 to baseline PVR (Week 12 PVR divided by baseline PVR). • Calculated PVR was used for the efficacy analyses.
The primary analysis was performed on the FAS and using calculated PVR. PVR was summarized by time point and treatment group using descriptive statistics. Ratio of Week 12 to baseline was summarized using geometric means and coefficients of variation (CVs). The ratio of Week 12 to baseline PVR was log-transformed (base e) and analyzed using ANCOVA with factors for treatment group (macitentan versus placebo), background PAH-specific therapy at baseline (Yes/No as per IXRS, randomization stratification factor), region (Europe/North America/Latin America as per IXRS, randomization stratification factor) and a covariate for baseline log-transformed PVR. The treatment group difference (on log scale) and its 95% confidence interval (2-sided) were estimated based on the model. The geometric mean ratio (macitentan versus placebo) and its 95% confidence interval (2-sided) were obtained by exponentiation. […] The log transformation for PVR is justified by the fact that ratios versus baseline follow a normal distribution more closely after a log transformation. In addition, mean absolute changes from baseline on log scale can be translated into (geometric) mean ratios by exponentiation.
A sensitivity analysis was performed applying main ANCOVA analysis without the stratification factors (background PAH-specific therapy at baseline and region). […]

[1] = 10 mg o.d. oral, DB period, FAS with imputation, n=43
[2] = 10 mg o.d., FAS with imputation, n=43
[3] = Week 12 vs baseline, macitentan group
[4] = change to Week 12, ANCOVA, FAS, listed as Macitentan
[5] = patients receiving macitentan, FAS no imputation

CCCNS(=O)(=O)Nc1ncnc(OCCOc2ncc(Br)cn2)c1-c1ccc(Br)cc1 [macitentan, N-[5-(4-Bromophenyl)-6-[2-[(5-bromo-2-pyrimidinyl)oxy]ethoxy]-4-pyrimidinyl]-N′-propylsulfamide]
PVR at Week 12, mean [1]: 350.3 dyn.sec/cm^5
PVR at Week 12, median [1]: 328.6 dyn.sec/cm^5
Mean (±SD) decrease in PVR from baseline to Week 12 (10 mg o.d., FAS): 202.1 (±123.56) dyn·sec/cm^5
Change from baseline to Week 12 in PVR, mean [2]: −202.1 dyn.sec/cm^5
Change from baseline to Week 12 in PVR, median [2]: −179.9 dyn.sec/cm^5
Ratio of Week 12 to baseline PVR, geometric mean (95% CLs) [2]: 0.63 (0.58, 0.67)
Ratio of baseline PVR at Week 12, median [2]: 0.60
Ratio of Week 12 to baseline PVR, geometric mean (95% CLs) (10 mg o.d., FAS with imputation, n=43, listed as Macitentan): 0.63
LS mean difference Macitentan 10 mg-Placebo, log(ratio of baseline PVR at Week 12) (ANCOVA, FAS): −0.43
LS mean of log(ratio of baseline PVR at Week 12) (ANCOVA, FAS, macitentan group): −0.41
Model-adjusted geometric mean of ratio of baseline PVR at Week 12 (ANCOVA, FAS, macitentan group): 0.67
SVO2 at Week 12, mean (FAS with imputation, n=41): 70.3%
SVO2 change from baseline to Week 12, mean (FAS with imputation, n=41): 1.1%
mRAP at Week 12, mean (FAS with imputation, n=42): 9.0 mmHg
mRAP change from baseline to Week 12, mean (FAS with imputation, n=42): 1.6 mmHg
Cardiac index at Week 12, mean (FAS with imputation, n=43): 3.7 L/min/m^2
Cardiac index change from baseline to Week 12, mean (FAS with imputation, n=43): 0.6 L/min/m^2
TPR at Week 12, mean (FAS with imputation, n=43): 489.4 dyn · sec/cm^5
TPR change from baseline to Week 12, mean (FAS with imputation, n=43): −199.8 dyn · sec/cm^5
mPAP Change from baseline to Week 12, Mean (FAS with imputation, n=43): −6.4 mmHg
mPAP at Week 12, mean (FAS with imputation, n=43): 40.0 mmHg
Effect on PVR across demographic and baseline disease subgroups (FAS, subgroup analyses, Week 12): consistent with the overall treatment effect, with no indication of heterogeneity
Geometric mean ratio of macitentan versus placebo (95% CLs), PVR, slope imputation (Week 12, ANCOVA, FAS N=85): 0.65 (0.59, 0.72),
Model-adjusted geometric mean ratio of PVR (macitentan over placebo), primary analysis (Week 12, ANCOVA, FAS N=85): 0.65 (0.59, 0.72), p < 0.0001
Difference in LS means macitentan-placebo, change from baseline in PVR (no log-transformation) (Week 12, ANCOVA, FAS N=85 (Table 10)): −180.71 dyn.sec/cm^5
Model-adjusted geometric mean ratio of PVR (macitentan over placebo), primary analysis (Week 12, ANCOVA, FAS N=85, listed as Macitentan): 0.65
Treatment effect: geometric mean ratio of PVR ratio (macitentan vs placebo) (Week 12, FAS with imputation, descriptive (Table 8)): 0.64
LS Mean difference (macitentan-placebo), ANCOVA (Absolute Change) of PVR (Week 12, N=85 (Table 12)): −180.71 meters
Reduction in PVR vs placebo (Week 12, from adjusted geometric mean ratio): 35%
Patients with an increase in PVR [3]: 1 patient
Patients with no change in PVR [3]: 1 patient
SVO2: difference in LS means macitentan-placebo (change to Week 12, ANCOVA, FAS): No clinically significant effect; also recorded: No clinically relevant effect
mRAP: difference in LS means macitentan-placebo (change to Week 12, ANCOVA, FAS): No clinically significant effect; also recorded: No clinically relevant effect
Cardiac index: difference in LS means macitentan-placebo [4]: 0.52 L/min/m^2
SVO2: difference in LS means macitentan-placebo [4]: 0.03%
TPR: difference in LS means macitentan-placebo [4]: −171.48 dyn · sec/cm^5
mPAP: difference in LS means macitentan-placebo [4]: −5.99 mmHg
mRAP: difference in LS means macitentan-placebo [4]: 1.67 mmHg
PAWP/LVEDP treatment difference based on change from baseline to Week 12 (macitentan vs placebo): 2.4 mmHg
Mean PAWP/LVEDP (SD) at Week 12 [5]: 11.4 (4.2) mmHg
PAWP/LVEDP mean (SD) change from baseline at Week 12 [5]: 2.1 (3.7) mmHg
